Experimental data published in US20220152051A1, “APPLICATION OF GLYCOCHOLIC ACID IN PREPARATION OF ANTITUMOR DRUGS” (DALIAN UNIVERSITY, priority 2019, published 2022).

Columns and labels:
[1] = system: 4T1 (mouse breast cancer cells); assay: In-vitro anti-tumor experiment (CCK-8), 4T1 cells; type: cell-based; conditions: for concentration at the highest point of the inhibition rate: 4T1 cells, highest inhibition rate at 12 h
Description: 3.1 Cells at a logarithmic growth phase are collected, the concentration of the cells is respectively regulated into 5×10^4 cells/ml by the 1640 culture medium and the DMEM culture medium, and 100 μl of cell suspension is added into a 96-well plate. 3.2 After culture is carried out for 24 h at the temperature of 37° C. at 5% CO2, the concentration gradient of glycocholic acid respectively of 0.1 nmol/L, 0.2 nmol/L, 0.4 nmol/L, 0.8 nmol/L, 1.6 nmol/L, 3.2 nmol/L and 6.4 nmol/L is added into 4T1 mouse breast cancer cells, the concentration gradient of glycocholic acid respectively of 0.02 μmol/L, 0.04 μmol/L, 0.08 μmol/L, 0.16 μmol/L, 0.32 μmol/L, 0.64 μmol/L and 1.28 μmol/L is added into MCF-7 cells, the concentration gradient of glycocholic acid respectively of 0.02 μmol/L, 0.04 μmol/L, 0.08 μmol/L, 0.16 μmol/L, 0.33 μmol/L, 0.66 μmol/L and 1.32 μmol/L is added into MDA-MB-468 cells, the concentration gradient of glycocholic acid respectively of 0.02 μmol/L, 0.04 μmol/L, 0.08 μmol/L, 0.16 μmol/L, 0.32 μmol/L, 0.64 μmol/L and 1.28 μmol/L is added into NIH:OVCAR-3 cells, the concentration gradient of glycocholic acid respectively of 0.02 μmol/L, 0.04 μmol/L, 0.08 μmol/L, 0.16 μmol/L, 0.32 μmol/L, 0.64 μmol/L and 1.28 μmol/L is added into RL-95-2 cells, set up five duplicated wells and meanwhile, set up a blank group and a control group. 3.3 Add CCK-8 reagent after 12 h, 24 h, 36 h, 48 h and 60 h, and incubate for 3 h, and after incubation is completed, the absorption value of each well is measured at OD450 nm of the microplate reader. 3.4 An inhibition rate of each concentration of glycocholic acid for tumor cells is obtained by utilizing a formula of 3.1 Cells at a logarithmic growth phase are collected, the concentration of the cells is regulated into 5×10^4 cells/ml by the 1640 culture medium, and 100 μl of cell suspension is added into a 96-well plate. […] 3.3 Add CCK-8 reagent after 12 h, 24 h, 36 h, 48 h and 60 h, incubate for 3 h, and after incubation is completed, the absorption value of each well is measured at OD450 nm of the microplate reader. […]

[2] = system: RL95-2 (human endometrial cancer cells); assay: In-vitro anti-tumor experiment (CCK-8), RL95-2 cells; type: cell-based
Description: (§1) 3.1 Cells at a logarithmic growth phase are collected, the concentration of the cells is respectively regulated into 5×10^4 cells/ml by the 1640 culture medium and the DMEM culture medium, and 100 μl of cell suspension is added into a 96-well plate. […] 3.3 Add CCK-8 reagent after 12 h, 24 h, 36 h, 48 h and 60 h, and incubate for 3 h, and after incubation is completed, the absorption value of each well is measured at OD450 nm of the microplate reader. […]

[3] = system: MDA-MB-468 (human breast cancer cells); assay: In-vitro anti-tumor experiment (CCK-8), MDA-MB-468 cells; type: cell-based
Description: as §1

FXR gene expression = assay: Real-time PCR of specific target RNA expression in 4T1 cells; type: cell-based, mouse; conditions: 0.8 nmol/L, 12 h, vs negative control
Description: 2. Method: RNA of the 4T1 cells intervened by glycocholic acid is extracted, and after reverse transcription, the Real-time RCP is carried out to measure the changes in the RNA expression of the specific target of glycocholic acid.

[4] = system: MCF-7 (human breast cancer cells); assay: In-vitro anti-tumor experiment (CCK-8), MCF-7 cells; type: cell-based
Description: as §1

[5] = system: NIH:OVCAR-3 (human ovarian cancer cells); assay: In-vitro anti-tumor experiment (CCK-8), NIH:OVCAR-3 cells; type: cell-based
Description: as §1

FXR protein expression = assay: Western blot of specific target protein expression in 4T1 cells; type: cell-based, mouse; conditions: 0.8 nmol/L, 12 h
Description: 2. After proteins of 4T1 cells intervened by glycocholic acid are extracted, by degeneration treatment, changes in the expression of the related proteins are measured according to the Western blot flow.

[6] = system: 4T1 mouse breast cancer cells; assay: Tumor inhibition rate by animal model (4T1 tumor-bearing BABL/c mice); type: in vivo; conditions: 15 mg/kg intragastric twice/day for two weeks, 4T1 tumor in BABL/c mice
Description: 1. Materials: 30 female 10-week-old BABL/c mice purchased from the SPF Experimental Animal Center of the Dalian Medical University; and 4T1 tumor cells purchased from the Shanghai Cell Bank of the Chinese Academy of Sciences. 2.1 Modeling: 4T1 mouse breast cancer cells at a logarithmic growth phase are collected, and the concentration of the cells is adjusted to 2×10^6 cells/ml with PBS; and 0.1 ml of cell suspension is injected under the right armpits of the mice by a sterile syringe. 2.2 Administration: intragastric administration of 15 mg/kg of glycocholic acid is started on the second day after modeling (twice/day), 0.2 mL each time, the equal volume of distilled water is administrated to the control group, and administration is continuously carried out for two weeks. The mice are fasted on the night of the last administration, the mice are sacrificed on the fifteenth day by a cervical dislocation method, tumor tissues under the armpits of the mice are aseptically stripped and weighed, and the tumor inhibition rate is calculated according to a formula of […]

[7] = highest inhibition rate at 36 h

Row | SMILES | concentration at the highest point of the inhibition rate [1] [nmol/L] | IC50 ([1]; 4T1 mouse breast cancer cells, CCK-8, 12 h) [nM] | IC50 ([2]; Homo sapiens, CCK-8, 36 h) [nM] | concentration at the highest point of the inhibition rate [2, 7] [µmol/L] | IC50 ([3]; Homo sapiens, CCK-8, 36 h) [nM] | concentration at the highest point of the inhibition rate [3, 7] [µmol/L] | expression of related RNA (FXR gene) after intervention (FXR gene expression) [times] | IC50 ([4]; Homo sapiens, MCF7, CCK-8, 36 h) [nM] | concentration at the highest point of the inhibition rate [4, 7] [µmol/L] | IC50 ([5]; Homo sapiens, CCK-8, 48 h) [nM] | concentration at the highest point of the inhibition rate ([5]; highest inhibition rate at 48 h) [µmol/L] | expression of the specific target protein (FXR) in tumor cells (FXR protein expression) | average mouse tumor mass ([6]; day 15) [g] | tumor inhibition rate ([6]; vs control group) [%]
1 | C[C@H](CCC(=O)NCC(=O)O)[C@H]1CC[C@H]2[C@@H]3[C@H](O)C[C@@H]4C[C@H](O)CC[C@]4(C)[C@H]3C[C@H](O)[C@]12C [glycocholic acid] | 0.8 | 0.01 to 0.1 | 320 to 640 | 1.28 | 330 to 660 | 1.32 | 1.5 | 640 to 1000 | 1.28 | 160 to 320 | 1.28 | increased | 0.247 ± 0.08 | 42.83
2 | C[C@H](CCC(=O)NCC(=O)[O-])[C@H]1CC[C@H]2[C@@H]3[C@H](O)C[C@@H]4C[C@H](O)CC[C@]4(C)[C@H]3C[C@H](O)[C@]12C.[Na+] [sodium glycocholate] | 0.7 |  |  |  |  |  |  |  |  |  |  |  |  | 
